The source of these data is patent publication US11771778B2, “Using DREADD for neuronal modulation in treating neuronal diseases” (priority 2016, dated 2023).

The structures appear in SMILES notation.

Assay [1] addresses T1, wild-type M3 muscarinic receptor (hM3) (Homo sapiens, UniProt P20309).
T1 construct: host or cells: human pulmonary artery smooth muscle cells
The note with it: human pulmonary artery smooth muscle cells (Armbruster et al., 2007); cited from earlier work.

Assay [2] concerns the target T2, Gq DREADD (hM3D(Gq)) in the GPe nucleus (Homo sapiens, UniProt P20309, A239G/Y149C).
T2 construct: expressed in transfected cells; host or cells: neurons of C57 black mice (GPe or STN), transduced with an AAV8 vector under the hSyn promoter
In words: Open field test, 6OHDA PD mice expressing Gq DREADD in GPe. The assay is classed as in vivo, C57 black mice. The method, then: (§1) To monitor the motor impairment and the ability of the DREADD therapy to reverse these impairments the following behavioral tests are conducted. Open field test: to measure motor activity dysfunction. In this test the spontaneous movement of mice in a square arena are recorded and quantified. Rotarod test: Mice were placed on a rotating rod with rotation speed gradually increasing from 4 to 40 RPM using a preset acceleration program. The time mice fell from the rotating rod was measured, with 300 seconds being the maximal time measured on the rod.
(§2) Experiments were performed on 2-4 month old wild type C57 black mice. To induce experimental PD, 1 microliter of a solution containing 6 hydroxy dopamine (6-OHDA) (3 mg/1 ml) was injected into the medial forebrain bundle via a small craniotomy drilled in the skull. The mouse head was fixated in a stereotaxic frame, and the 6OHDA containing solution was injected using a glass pipette held by a micro-manipulator and a micro-injector.
(§3) To express DREADDs (either the inhibitory DREADD Gi or the excitatory DREADD Gq) viral vectors were injected (either AAV8-hSyn-hM3D(Gq)-mCherry or AAV8-hSyn-hM4D(Gi)-mCherry). The viral vectors were injected through a craniotomy with a glass pipette held by a micromanipulator and a micro-injector. During the injections the head was fixated in a stereotaxic frame for accurate injections. Mice were anesthetized throughout the procedure with isoflurane.
The viral vectors […] were injected into several targets in the basal ganglia loop including the STN (either Gi and Gq), the EP and SNr nuclei (Gi), GPe (Gq) and the ventral thalamus (Gq). The injections were usually unilateral at the side of the 6OHDA injections. However, in cases of bilateral 6OHDA injections viral vectors were injected to the target nuclei bilaterally. Usually viral vectors and 6OHDA were injected at the same session. […]
(§4) Two behavioral tests were used for monitoring the behavior of mice: (1) Open field test: Mice were placed in a 30 cm×30 cm×30 cm open top box for 5 minutes and continuous recorded on a video. The results were analyzed off-line after the experiments ended. Using the EthoVision software, the mean velocity and distance traveled by the mice were monitored during the 5 minutes of open field test. In addition, the number and direction of 180° turns were monitored with the EthoVision software. […] The time mice fell from the rotating rod was measured, with 300 seconds being the maximal time measured on the rod. […]
In this set of experiments, the GPe nucleus, which serves as a major relay nucleus exclusively belonging to the indirect pathway, was targeted. More specifically, the GPe neurons were activated using the excitatory Gq DREADDs, and the effect on behavior on 6-OHDA induced hemi-parkinsonian mice, was monitored.

The next assay deals with T3, hM3Dq receptor (hM3D) (Homo sapiens, UniProt P20309, A239G/Y149C).
T3 construct: host or cells: human pulmonary artery smooth muscle cells
T3 sequence (P20309 whole entry Y149C/A239G): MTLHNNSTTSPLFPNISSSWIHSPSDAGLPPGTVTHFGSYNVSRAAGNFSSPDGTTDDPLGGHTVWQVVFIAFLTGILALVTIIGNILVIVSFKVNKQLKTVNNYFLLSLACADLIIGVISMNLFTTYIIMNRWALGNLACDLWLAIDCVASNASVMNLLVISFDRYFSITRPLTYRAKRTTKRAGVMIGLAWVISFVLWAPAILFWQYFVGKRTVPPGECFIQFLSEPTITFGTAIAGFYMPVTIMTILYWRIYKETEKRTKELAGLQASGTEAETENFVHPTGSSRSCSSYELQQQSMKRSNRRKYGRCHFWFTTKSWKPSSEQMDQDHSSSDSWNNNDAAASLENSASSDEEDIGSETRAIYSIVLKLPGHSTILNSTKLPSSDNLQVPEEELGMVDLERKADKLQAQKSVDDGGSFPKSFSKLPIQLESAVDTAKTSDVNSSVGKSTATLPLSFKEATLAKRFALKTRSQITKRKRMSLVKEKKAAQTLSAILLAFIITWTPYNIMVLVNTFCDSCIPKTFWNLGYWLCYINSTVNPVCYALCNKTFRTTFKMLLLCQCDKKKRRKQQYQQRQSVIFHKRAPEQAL
The settings on record: human pulmonary artery smooth muscle cells (Armbruster et al., 2007); cited from earlier work.

The nature of assay [3]: Rotarod test, mice without DREADD (normal control and 6OHDA hemi PD). The assay is classed as in vivo, C57 black mice. The settings on record: normal control and 6OHDA hemi PD mice, no DREADD; IP CNO 5 mg/kg, blinded. The method, then: as §1
(§5) Experiments were performed on 2-4 month old wild type C57 black mice. […]
as §4

Assay [4] deals with T4, Gq DREADD (hM3D(Gq)) in the STN (Homo sapiens, UniProt P20309, A239G/Y149C).
T4 construct: expressed in transfected cells; host or cells: neurons of C57 black mice (GPe or STN), transduced with an AAV8 vector under the hSyn promoter
T4 sequence (P20309 whole entry Y149C/A239G): as above
In words: Rotarod test, 6OHDA PD mice expressing Gq DREADD in STN. It counts as in vivo, C57 black mice. The note with it: IP CNO 5 mg/kg. The method, then:
as §1, §5, §4
(The rotarod test checks motor coordination on a turning rod.)

Assay [5] is described as follows: Open field test, mice without DREADD (normal control and 6OHDA hemi PD). It counts as in vivo, C57 black mice. The settings on record: normal control and 6OHDA hemi PD mice, no DREADD, IP CNO 5 mg/kg, blinded. As for the experimental part:
as §1, §5, §4

Assay [6] addresses T2, Gq DREADD (hM3D(Gq)) in the GPe nucleus. Nature of the assay: Rotarod test, 6OHDA PD mice expressing Gq DREADD in GPe. The assay is classed as in vivo, C57 black mice. As for the experimental part: as §1, §5, §4
The target of assay [7] is T5, Gi DREADD (hM4D(Gi)) in the EP (GPi) and SNr nuclei (Homo sapiens, UniProt P08173, A203G/Y113C).
T5 construct: expressed in transfected cells; host or cells: neurons of C57 black mice (EP/SNr or STN), transduced with an AAV8 vector under the hSyn promoter
T5 sequence (P08173 1-479 Y113C/A203G): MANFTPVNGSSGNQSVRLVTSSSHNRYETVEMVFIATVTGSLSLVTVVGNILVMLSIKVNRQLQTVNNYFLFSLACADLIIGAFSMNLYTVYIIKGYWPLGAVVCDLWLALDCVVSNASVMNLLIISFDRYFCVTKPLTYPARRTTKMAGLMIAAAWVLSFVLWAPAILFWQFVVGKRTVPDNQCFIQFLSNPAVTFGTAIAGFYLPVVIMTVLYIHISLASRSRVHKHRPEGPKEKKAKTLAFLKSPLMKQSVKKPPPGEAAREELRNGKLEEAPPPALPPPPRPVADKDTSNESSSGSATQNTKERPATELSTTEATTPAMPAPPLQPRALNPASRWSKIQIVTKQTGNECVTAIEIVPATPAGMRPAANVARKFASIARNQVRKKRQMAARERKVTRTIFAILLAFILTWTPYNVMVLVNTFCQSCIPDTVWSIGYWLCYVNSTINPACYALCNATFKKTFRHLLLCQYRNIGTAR
In words: Rotarod test, 6OHDA PD mice expressing Gi DREADD in EP and SNr. The assay is classed as in vivo, C57 black mice. The method, then:
as §1, §5, §4

In assay [8] the target is T4, Gq DREADD (hM3D(Gq)) in the STN. Nature of the assay: Open field test, 6OHDA PD mice expressing Gq DREADD in STN. It counts as in vivo, C57 black mice. The note with it: IP CNO 5 mg/kg. As for the experimental part: as §1, §2, §3
(§6) The viral vectors […] were injected into several targets in the basal ganglia loop including the STN (either Gi and Gq), the EP and SNr nuclei (Gi), GPe (Gq) and the ventral thalamus (Gq). The injections were usually unilateral at the side of the 6OHDA injections. However, in cases of bilateral 6OHDA injections viral vectors were injected to the target nuclei bilaterally. Usually viral vectors and 6OHDA were injected at the same session.
(§7) To investigate the effect of DREADD activation, 500 μl of either IP CNO (5 mg/kg) or normal saline (NS-0.9% NaCl) was administered. Administration of either CNO or saline was performed in a blinded manner. […] Behavioral experiments were performed approximately 20-30 minutes after IP drug administration.
as §4

Assay [9] has as its target T6, Gi DREADD (hM4D(Gi)) in the STN (Homo sapiens, UniProt P08173, A203G/Y113C).
T6 construct: expressed in transfected cells; host or cells: neurons of C57 black mice (EP/SNr or STN), transduced with an AAV8 vector under the hSyn promoter
T6 sequence (P08173 1-479 Y113C/A203G): T5 sequence (P08173 1-479 Y113C/A203G)
Nature of the assay: Open field test, 6OHDA PD mice expressing Gi DREADD in STN. It counts as in vivo, C57 black mice. The note with it: blinded IP CNO. The method, then:
as §1, §5, §4

In assay [10] the target is T5, Gi DREADD (hM4D(Gi)) in the EP (GPi) and SNr nuclei. Nature of the assay: Open field test, 6OHDA PD mice expressing Gi DREADD in EP and SNr. It counts as in vivo, C57 black mice. The method, then: as §1, §2, §3, §6, §7, §4
Assay [11] concerns the target T6, Gi DREADD (hM4D(Gi)) in the STN. In words: Rotarod test, 6OHDA PD mice expressing Gi DREADD in STN. It counts as in vivo, C57 black mice. The settings on record: blinded IP CNO. As for the experimental part: as §1, §5, §4
Where [12] appears, read: 6OHDA bilateral PD mice, Gq DREADD in both GPe nuclei, p<0.01.
Where [13] appears, read: 6OHDA hemi PD mice, unilateral Gq DREADD in GPe, IP CNO 5 mg/kg.
The mark [14] stands for this setting: 6OHDA hemi PD mice, unilateral Gq DREADD in STN.
Setting [15] is: bilateral 6OHDA PD mice, bilateral Gq DREADD in STN.
[16] abbreviates: 6OHDA bilateral PD mice, bilateral Gi DREADD in both EP and SNr nuclei, p<0.01.
Where [17] appears, read: 6OHDA hemi PD mice, unilateral Gi DREADD in EP and SNr, IP CNO 5 mg/kg.

T2 sequence (P20309 whole entry Y149C/A239G): as the sequence (P20309 whole entry Y149C/A239G) above
T1 sequence (P20309 whole entry): as the sequence (P20309 whole entry Y149C/A239G) above, with C149Y, G239A counted along it

Turning to `CC(=O)OCC[N+](C)(C)C` [ACh], in assay [1], the “activation of wild-type M3 muscarinic receptor (hM3)” value is recorded as “potently activated”.

As to `C[N+]1([O-])CCN(C2=Nc3cc(Cl)ccc3Nc3ccccc32)CC1` [CNO, clozapine-N-oxide], the “mean velocity in motor activity test, CNO vs NS” value in assay [2] (setting [12]) and in [10] (setting [16]) was “beneficial effect” each time. For the same molecule, the results for the “increase in the mean velocity in the open field test compared to NS” value in [2] (setting [13]), in assay [8] (setting [14]) and in assay [8] (setting [15]) were 77.2±24.7%, 117.6±26.9% and 294.4±70.9%, respectively. Besides, the “reduction in the number of clockwise rotations compared to NS” value in [2] (setting [13]) came out at 37.7±20%; in [8] (setting [14]), 37.2±17%; in [10] (setting [17]), 68.9±10.8%. In addition, the “reduction in the percent of clockwise rotations compared to NS” value was found to be 40±7.8% in [2] (setting [13]), 47.6±11.1% in assay [8] (setting [14]) and 46±8.6% in assay [10] (setting [17]). Besides, the “activation of hM3Dq receptor resulting in PIP2 hydrolysis” value on hM3Dq receptor (hM3D) is recorded as “selectively activated”. For the same molecule, the “time to falling off the rotating rod, CNO vs NS” value in assay [3] is “no significant differences”. The “performances in the rotarod test, CNO vs NS” value in assay [4] (setting [14]) is listed as “no significant differences”; in assay [11], “did not significantly affect”. Moreover, the “increase in the time before falling off the rotarod compared to NS” value in assay [4] (setting [15]) is recorded as 81±15.8%. Moreover, the “movement velocity in the open field test, CNO vs NS” value in [5] is “no significant differences”. In addition, in assay [5] (5-minute open field), the “ipsilateral turning (number and percent of clockwise rotations), CNO vs NS” value was “no significant differences”. Also, the “average time on the rotating rod in the rotarod test, CNO vs NS” value in assay [6] (setting [12]) and in assay [7] (setting [16]) was “beneficial effect” in each case. Moreover, the “increase in the time spent on the rotating rod in the rotarod test compared to NS” value in [6] (setting [13]) is 25.6±6.1%; in assay [7] (setting [17]), 30.5±7.1%. In [1], the “activation of wild-type M3 muscarinic receptor (hM3)” value was “not by CNO”. In addition, the “effect on turns, CNO vs NS” value in assay [9] is recorded as “small, yet significant beneficial effect”. Further, in [9], the “mean velocity in the open field test, CNO vs NS” value is recorded as “did not significantly affect”. Also, in assay [10] (setting [17]), the “improvement in the mean velocity in the open field test compared to NS” value was found to be 36±9%.
